Earlier results as cited in patent US4826688A, “Controlled absorption pharmaceutical formulation” (501 Elan Corporation PLC., priority 1985, dated 1989).

| Compound | absorption from the gastro-intestinal tract (in words) | peak plasma concentrations are reached (quinidine sulphate, usual) | excretion in the urine (in words) |
| --- | --- | --- | --- |
| C=C[C@H]1C[N@@]2CC[C@H]1C[C@@H]2[C@@H](O)c1ccnc2ccc(OC)cc12 [Quinidine sulphate] | rapidly absorbed | about two | – |
| C=C[C@H]1C[N@@]2CC[C@H]1C[C@@H]2[C@@H](O)c1ccnc2ccc(OC)cc12 [Quinidine, (+)-α-(6-methoxyquinolin-4-yl)-α-(5-vinylquinuclidin-2-yl)methanol] | – | – | almost entirely excreted in the urine |
